Data as given in patent publication US20240269212A1, “HEMP EXTRACT FOR TREATMENT OF PAIN, CANCER AND EPILEPSY IN ANIMALS” (Portland Technology Holdings LLC., priority 2021, published 2024).

How the values were obtained:
[1] = Serum cannabinoid concentrations after 1 and 2 weeks of twice daily dosing (relative steady state); type: in vivo, dog (beagle); conditions: for concentration at 6 h: male, beagle, dog, 2 mg/kg, 2 mg/kg twice daily, six hours after the morning dose
Text: Six intact male beagles all 2 years of age weighing between 18.6 and 22.2 kilograms body weight were housed at the Baker Institute for Animal Health and all procedures were approved by the Cornell University Institutional Animal Care and Use Committee (Protocol 2019-0001). All dogs underwent the fasted treatment trial for a two-week period and were then allowed 2 weeks of washout before beginning the fed stage of the trial which included ¼ of a 13 ounce can of a wet food (PURINA® Pro Plan Savory Chicken and Rice Formula, Nestle Purina, St. Louis, MO) at the time of dosing. Twenty-four hour pharmacokinetic analysis of serum cannabinoid levels was performed on day 1 after a single dose in the fed or fasted state. Then, twice daily dosing of treatment oil at both 7 am and 7 pm was performed on the following days for two weeks, and serum cannabinoids were measured. Prior to the study all dogs had blood drawn for a complete blood count and serum chemistry and again at the end of each phase of the 2 week study. Complete blood counts (white blood cells [WBC], hematocrit, hemoglobin, red blood cells [RBC], neutrophils, lymphocytes, platelets, monocytes, eosinophils, basophils) and serum biochemistry analyses (sodium, potassium, chloride, magnesium, calcium, phosphorus, albumin, total protein, globulin, urea nitrogen, creatinine, alkaline phosphatase [ALP], alanine aminotransferase [ALT], aspartate amino transferase [AST], cholesterol, total bilirubin, glucose and gamma glutamyl transferase [GGT]) were performed at the Cornell University Diagnostic Laboratory. For the fasted and fed portions of the 24 hour pharmacokinetic analysis study the dogs were administered 2 mg/kg body weight of an equal mix of 30 mg/mL CBG and 30 mg/mL CBGA from a hemp extract in a sesame oil base which was tested again at the end of the study showing virtually the same analytical profile. Two milliliters of blood was drawn via jugular venipuncture for all 6 dogs prior to the initial dose (0 hours) and then again at 0.5, 1, 2, 4, 8, 12 and 24 hours. Prior to enrollment all dogs involved in the study were deemed healthy based on physical examination. Behavioral observations were performed 2 hours after morning dosing for each phase of the trial. Behavioral observations were performed on day 1, day 3, day 7, and day 14. Physical and behavioral examinations were performed to assess for adverse events including diarrhea, vomiting, lethargy, somnolence, ataxia, or abnormal behavior within the colony. Due to the potential for CBG/CBGA to affect heart rate, dogs were assessed manually for resting heart rates for 30 seconds and extrapolated to relative beats per minute after initial dosing at time points 0, 1, 2, 4, 12, 24 and 48 hours and again at day 7 and day 14 after morning dosing for both the fed and fasted arms of the study. Serum was also obtained on day 7 and day 14 six hours after the morning dose for further serum cannabinoid measurement to establish relative steady state serum concentrations.
Analysis was performed using an exploratory (fit-for-purpose) method for fast measurement of thirteen cannabinoids and their metabolites at the Toxicology Research Laboratory, University of Illinois at Chicago. The reference standards for CBD and CBDA were obtained from Restek Corporation (Bellefonte, PA); all other reference and internal standards including CBG and CBGA were obtained from Cerilliant Corporation (Round Rock, TX). The concentrations of cannabinoids (CBD, CBDA, 7-COOH Cannabidiol (7-COOH-CBD), THC, THCA, cannabinol (CBN), cannabichromene (CBC), CBG, and CBGA) and their metabolites (7-OH-CBD, 7-COOH-CBD, COOH-THC, and COOH-THC-Glu) in dog sera were determined using high performance liquid chromatography with tandem mass spectrometry (LC-MS/MS) (Nexera X2 and LCMS 8050, Shimadzu Corp., Kyoto, Japan). […]

[2] = Physical and behavioral examinations for adverse events; type: in vivo; conditions: healthy dogs, oral 2 mg/kg twice daily for 2 weeks
Text: All dogs underwent the fasted treatment trial for a two-week period and were then allowed 2 weeks of washout before beginning the fed stage of the trial which included ¼ of a 13 ounce can of a wet food (PURINA® Pro Plan Savory Chicken and Rice Formula, Nestle Purina, St. Louis, MO) at the time of dosing. […] Prior to the study all dogs had blood drawn for a complete blood count and serum chemistry and again at the end of each phase of the 2 week study. Complete blood counts (white blood cells [WBC], hematocrit, hemoglobin, red blood cells [RBC], neutrophils, lymphocytes, platelets, monocytes, eosinophils, basophils) and serum biochemistry analyses (sodium, potassium, chloride, magnesium, calcium, phosphorus, albumin, total protein, globulin, urea nitrogen, creatinine, alkaline phosphatase [ALP], alanine aminotransferase [ALT], aspartate amino transferase [AST], cholesterol, total bilirubin, glucose and gamma glutamyl transferase [GGT]) were performed at the Cornell University Diagnostic Laboratory. […] Due to the potential for CBG/CBGA to affect heart rate, dogs were assessed manually for resting heart rates for 30 seconds and extrapolated to relative beats per minute after initial dosing at time points 0, 1, 2, 4, 12, 24 and 48 hours and again at day 7 and day 14 after morning dosing for both the fed and fasted arms of the study.

[3] = Manual resting heart rate monitoring; type: in vivo, dog (beagle); conditions: initial dosing and two-week period of treatment
Text: Six intact male beagles all 2 years of age weighing between 18.6 and 22.2 kilograms body weight were housed at the Baker Institute for Animal Health and all procedures were approved by the Cornell University Institutional Animal Care and Use Committee (Protocol 2019-0001). All dogs underwent the fasted treatment trial for a two-week period and were then allowed 2 weeks of washout before beginning the fed stage of the trial which included ¼ of a 13 ounce can of a wet food (PURINA® Pro Plan Savory Chicken and Rice Formula, Nestle Purina, St. Louis, MO) at the time of dosing. Twenty-four hour pharmacokinetic analysis of serum cannabinoid levels was performed on day 1 after a single dose in the fed or fasted state. Then, twice daily dosing of treatment oil at both 7 am and 7 pm was performed on the following days for two weeks, and serum cannabinoids were measured. Prior to the study all dogs had blood drawn for a complete blood count and serum chemistry and again at the end of each phase of the 2 week study. […] Due to the potential for CBG/CBGA to affect heart rate, dogs were assessed manually for resting heart rates for 30 seconds and extrapolated to relative beats per minute after initial dosing at time points 0, 1, 2, 4, 12, 24 and 48 hours and again at day 7 and day 14 after morning dosing for both the fed and fasted arms of the study. […]

SMILES | concentration at 6 h ([1]; serum, oral, week one, fasted) | concentration at 6 h ([1]; serum, oral, week one, fed) | concentration at 6 h ([1]; serum, oral, week two, fasted) | concentration at 6 h ([1]; serum, oral, week two, fed) | Short-term safety (serum biochemistry, blood count, physical exam and heart rate monitoring) [2] | concentration at 6 h ([1]; in vivo, week one, fasted) | concentration at 6 h ([1]; in vivo, week one, fed) | concentration at 6 h ([1]; in vivo, week two, fasted) | concentration at 6 h ([1]; in vivo, week two, fed) | absorption and retention, fold higher than what can be achieved with CBG ([1]; oral dosing over a 2-week period) | Bradycardia upon oral absorption [3]
CCCCCc1cc(O)c(C/C=C(\C)CCC=C(C)C)c(O)c1 [CBG, cannabigerol] | 5 ± 3.5 ng/mL | 12.7 ± 12.3 ng/mL | 6.1 ± 6 ng/mL | 9.6 ± 8.4 ng/mL | appear to be safe |  |  |  |  |  | 
CCCCCc1cc(O)c(C/C=C(\C)CCC=C(C)C)c(O)c1C(=O)O [CBGA, cannabigerolic acid] |  |  |  |  | appear to be safe | 437 ± 414 ng/mL | 564 ± 574 ng/mL | 260 ± 300 ng/mL | 223 ± 197 ng/mL | ~10 fold | does not induce bradycardia
